Assay results as given in US20200345021A1, “METHOD AND SYSTEM FOR ENHANCING THE EFFICACY USING IONIZED/A[…] PEROXIDE IN REDUCING MICROBIAL POPULATIONS, METHOD OF USE THEREOF” (priority 2019, published 2020).
Where “and” joins values, the source holds several entries; their conditions need not be identical. Identical values can stand only once. Like-named read-outs stand apart in the source and are kept apart here. Marks after values point to notes of the source that are not given here.

Key:
[1] = system: total aerobic plate count (APC), native microorganisms; details: for Total plate count: not inoculated
Procedure: (§1) The untreated (control) and treated samples were placed separately in a Stomacher bag with 20˜100 ml of neutralizing buffer and pummeled at 260 rpm for 2 mm using Stomacher (Interscience Laboratories Inc.). Decimal dilutions of the samples were made with 0.1% peptone (Difco) and aliquots (0.1 or 1 ml) were spread plated in duplicate onto TSA with incubation at 37° C. for 24 h for the enumeration of total aerobic plate count (APC), and onto Dichloran Rose Bengal Chlortetracycline (DRBC, Difco) agar with incubation at 25° C. for 5 days for enumeration of yeast and mold. DRBC plates were wrapped with aluminum foil to […]. Experiments were conducted independently 8 times. Colonies were counted and reported as log CFU/piece.
(§2) Produce items were placed onto a sterile test tube tack with inoculated area facing up. […] The distance and voltage between the two electrodes were 9 mm and 17 kV, respectively. […] After 45 s treatment, the chamber was sealed for 30 mins (dwell time) before removal of the fresh produce items. Experiment; were repeated three times.

[2] = system: yeast and mold; details: for Yeast and mold count: not inoculated
Procedure: as §1, §2

[3] = system: Salmonella Typhimurium; assay type: cell-based; details: for Reductions of Salmonella, range over the fresh produce items: all tested produce items and surfaces, optimized conditions
Text: (§3) To minimize the risk of possible bacteria becoming airborne during treatments, attenuated and non-pathogenic bacteria were used in the study. Two strains of non-pathogenic S. Typhimurium (ATCC 53647 and 53648) and three strains of L. innocua (ATCC 33090, ATCC 51742 and ATCC BAA680) were obtained from American Type Culture Collection (ATCC) (Manassas, Va., USA). Further studies used E. coli O157:H7 (ATCC 700728), S. Typhimurium (ATCC 53647 and 53648), and L. innocua (ATCC 33090) obtained from American Type Culture Collection (ATCC) (Manassas, Va., USA) and maintained as a part of the culture collection at the USDA Eastern Regional Research Center (Wyndmoor, Pa. USA). The bacteria were made to be resistant to nalidixic acid by successive growth in Trypic Soy Broth (TSB) (Difco, Sparks, Md., USA) with increasing nalidixic acid concentrations. All strains were stored at −80° C. in 1 mL of TSB containing 10% glycerol. Working cultures of S. Typhimurium and L. innocua were maintained in 9 mL TSB (supplemented with 100 μg/mL nalidixic acid for S. Typhimurium) at 4° C. after incubating at 37° C. for […], respectively, and sub-cultured each time.
(§4) Each strain of S. Typhimurium and L. innocua was cultured in 9 mL TSB (supplemented with 100 μg/mL nalidixic acid for S. Typhimurium) and incubated at 37° C. for 40 h and 48 h, respectively, harvested by centrifugation at 4000×g for 10 min at 4° C., and resuspended in 9 mL sterile Buffered Peptone Water (BPW; Difco). The pellets were resuspended in BPW to form cell suspensions with a final concentration of 108˜10^9 CFU/mL. Subsequently, suspended pellets of two strains of Salmonella and three strains of L. innocua were combined to obtain two separate culture cocktails.
(§5) Grape tomatoes, granny smith apples, romaine lettuce and cantaloupes were purchased from local markets (Philadelphia, Pa., USA) and kept at 10° C. prior to use. Fruits and vegetables were removed from 10° C. refrigeration and equilibrated to ambient temperature before being inoculated. Romaine lettuce was divided into upper green leaf and midrib tissues. Six tomatoes, six pieces (2×2 cm) of apple skins, five pieces (3×3 cm) of Romaine lettuce upper leaves, five pieces (3 cm length) of Romaine lettuce midrib area and six pieces (2×2 cm) of cantaloupe rinds with 2×3 mm thickness of flesh were used for each treatment per replicate. Bach piece w as spot inoculated with 10 μL of Salmonella and L. innocua by depositing droplets with a micropipette. The inoculated samples were dried in a bio-hood for 1 h (for tomato surfaces, romaine lettuce, apple skins and cantaloupe rinds) or 2 h (for tomato stem scars) at ambient temperature.
(§6) Produce items were placed onto a sterile test tube rack with the inoculated area facing up and the rack with produce pieces were placed inside of a treatment chamber (12×12×24 inch).
(§7) Therefore, each kind of produce was treated with and without cold plasma ionized under the same optimized conditions.
(§8) After each treatment, the tomato stem scars and surfaces with the inoculated bacteria were removed using a pair of sterile scissors. Each type of produce item from the same treatment was combined (total weight: 1.51±0.29 g for tomato stem scars; 2.07±0.15 g for tomato surfaces; 6.37±0.92 g for apple skins; 1.62±0.34 g for Romaine lettuce upper leaves: 13.30±2.97 g for Romaine lettuce midrib tissues: 9.58±1.26 g for cantaloupe rinds) and transferred into an 80 mL filtered stomacher bag. After addition of 30 mL BBL buffered peptone water into the bag, the sample in the bag was homogenized using a mini blender (Mini Mix CC, Interscience laboratories Inc., Woburn, Mass., USA) for 2 min at a setting of 4. […] Tryptic Soy Agar with 200 μg/mL pyruvate acid and 100 μg/mL nalidixic acid (TSA-PN) and PALCAM Agars (Difco) were used for the enumeration of S. Typhimurium and L. innocua, respectively.

[4] = system: Listeria innocua; assay: Effect of cold plasma activation on efficacy of ionized/aerosolized H2O2 against Listeria innocua (Study 2); assay type: cell-based; details: for Reductions of Listeria on all types and surfaces of fresh produce except the tomato stem scar area: optimized conditions
Text: as §3, §4, §5, §6, §7, §8

[5] = system: S. Typhimurium
[6] = system: L. innocua; details: 45 s treatment + 30 min dwell
[7] = Cantaloupe rind, 30 s spray time + 30 min dwell, listed as H2O2 + cold plasma
[8] = Romaine lettuce-midrib, 30 s spray time + 30 min dwell, listed as H2O2 + cold plasma
[9] = Romaine lettuce-upper leaf, 30 s spray time + 30 min dwell, listed as H2O2 + cold plasma
[10] = Tomato-stem scar, three cycles of 20 s spray time plus 20 min dwell time, listed as H2O2 + cold plasma
[11] = Tomato-surface, 8 s spray time + 30 min dwell, listed as H2O2 + cold plasma
[12] = listed as hydrogen peroxide (H2O2) with cold plasma

OO [H2O2, hydrogen peroxide]
Total plate count ([1]; cantaloupe): 4.6 +/− 1.2a Log CFU/piece
Reduction in APC ([1]; spinach leaves): 1.3 log
Total plate count ([1]; spinach): 4.7 +/− 1.3b Log CFU/piece
Total plate count ([1]; tomato): 5.4 +/− 0.5b Log CFU/piece
Reduction in APC ([1]; tomatoes): 0.5 log
Yeast and mold count ([2]; cantaloupe): 4.7 +/− 0.9a Log CFU/piece
Reduction of yeast and mold count ([2]; spinach): 2.2 log
Yeast and mold count ([2]; spinach): 4.2 +/− 2.0b Log CFU/piece
Reduction of yeast and mold count ([2]; tomato): 3.9 log
Yeast and mold count ([2]; tomato): 2.2 +/− 1.5b Log CFU/piece
Populations of Salmonella Typhimurium [3, 7]: 3.76 ± 0.53^c log CFU/piece
Reductions of Salmonella Typhimurium [3, 7]: 2.61 ± 0.53^x log CFU/piece
Reductions of Salmonella Typhimurium ([3]; Granny Smith apples, 8 s spray time + 30 min dwell, listed as H2O2 + cold plasma): 5.50 ± 0.19^x log CFU/piece
Reductions of Salmonella Typhimurium ([3]; Granny Smith apples, 8 s spray time + 30 min dwell, listed as iHP): > 5 log CFU/piece
Populations of Salmonella Typhimurium [3, 8]: 2.54 ± 0.32^c log CFU/piece
Reductions of Salmonella Typhimurium [3, 8]: 3.40 ± 0.32^x log CFU/piece
Populations of Salmonella Typhimurium [3, 9]: 3.54 ± 0.11^c log CFU/piece
Reductions of Salmonella Typhimurium [3, 9]: 2.88 ± 0.11^x log CFU/piece
Populations of Salmonella Typhimurium [3, 10]: 3.60 ± 0.70^c log CFU/piece
Reductions of Salmonella Typhimurium [3, 10]: 2.35 ± 0.30^x log CFU/piece
Reductions of Salmonella Typhimurium [3, 11]: 5.28 ± 0.49^x log CFU/piece
Reductions of Salmonella Typhimurium ([3]; Tomato-surface, 8 s spray time + 30 min dwell, listed as iHP): > 5 log CFU/piece
Reductions of Salmonella, range over the fresh produce items [3, 12]: 2.35-5.50 log CFU/piece
Reductions of Salmonella, range over the fresh produce items ([3]; listed as iHP): 2.35-5.50 log CFU/piece
Listeria reductions for cantaloupes and two locations on lettuces [4]: 2.61 to 3.40 log CFU/piece
Populations of Listeria innocua ([4]; Cantaloupe rind, 30 s spray time + 30 min dwell, ND1: not detectable (detection limit 0.70 log CFU/piece), listed as H2O2 + cold plasma): ND1^c
Reductions of Listeria innocua [4, 7]: 5.10 ± 0.30^x log CFU/piece
Populations of Listeria innocua ([4]; Granny Smith apple, 8 s spray time + 30 min dwell, ND1: not detectable (detection limit 0.70 log CFU/piece), listed as H2O2 + cold plasma): ND1^c
Reductions of Listeria innocua ([4]; Granny Smith apple, 8 s spray time + 30 min dwell, listed as H2O2 + cold plasma): 5.24 ± 0.22^x log CFU/piece
Populations of Listeria innocua ([4]; Romaine lettuce-midrib, 30 s spray time + 30 min dwell, ND2: not detectable (detection limit 0.76 log CFU/piece), listed as H2O2 + cold plasma): ND2^c
Reductions of Listeria innocua [4, 8]: 5.21 ± 0.11^x log CFU/piece
Populations of Listeria innocua ([4]; Romaine lettuce-upper leaf, 30 s spray time + 30 min dwell, ND2: not detectable (detection limit 0.76 log CFU/piece), listed as H2O2 + cold plasma): ND2^c
Reductions of Listeria innocua [4, 9]: 5.19 ± 0.08^x log CFU/piece
Populations of Listeria innocua [4, 10]: 2.94 ± 0.89^c log CFU/piece
Reductions of Listeria innocua [4, 10]: 2.62 ± 0.89^x log CFU/piece
Reductions of Listeria innocua ([4]; Tomato-stem scar, three cycles of 20 s spray time plus 20 min dwell time, listed as iHP): 2.36 log CFU/piece
Populations of Listeria innocua ([4]; Tomato-surface, 8 s spray time + 30 min dwell, ND1: not detectable (detection limit 0.70 log CFU/piece), listed as H2O2 + cold plasma): ND1^c
Reductions of Listeria innocua [4, 11]: 5.16 ± 0.20^x log CFU/piece
Reductions of Listeria on all types and surfaces of fresh produce except the tomato stem scar area ([4]; listed as cold plasma-activated hydrogen peroxide (H2O2)): > 5 log CFU/piece
Reductions of Listeria on all types and surfaces of fresh produce except the tomato stem scar area [4, 12]: more than 5 log CFU/piece
Reductions of Listeria on all types and surfaces of fresh produce except the tomato stem scar area ([4]; listed as iHP): more than 5 log CFU/piece
Reduction of Salmonella [5]: 4.2 log CFU/leaf
Populations of L. innocua ([6]; cantaloupe): 3.5 +/− 0.2b log CFU/piece
Reduction of L. innocua ([6]; cantaloupe): 3.0 log CFU/piece
Populations of L. innocua ([6]; spinach): 2.5 +/− 1.9b log CFU/piece
Reduction of L. innocua ([6]; surface of spinach leaves): 4.0 log CFU/leaf
Reduction of L. innocua ([6]; tomato stem scar area, listed as ionized/aerosolized hydrogen peroxide (H2O2)): 1.0-1.3 log CFU/piece and 1.3 log CFU/piece
Populations of L. innocua ([6]; tomato stem scar): 4.9 +/− 0.4b log CFU/piece
